Our source for the IC50 values is patent US20240208950A1, “COMPOSITIONS AND METHODS FOR TREATMENT OF CERVICAL AND OVARIAN CANCER” (SOUTH DAKOTA BOARD OF REGENTS, priority 2021, published 2024).

The test system of the test is ovarian cancer cell line A2780. The test can be described thus: MTT cell viable assay (cytotoxicity and anti-proliferation). The format is cell-based. Conditions: Homo sapiens. As to the method: A biological assay was performed to study the potency of ORM-analogs by observing their pharmaceutical effects on living tissue (in vitro) and the effects of these analogs of unknown potency were compared to the effects of the standard (ormeloxifene). An MTT cell viable assay was first conducted to measure the cytotoxicity and anti-proliferation activity of synthesized analogs (Table 2 and FIG. 2).
On the technique in general: Tetrazolium assays rely on reduction of a dye to a coloured formazan, in cell work by metabolically active cells.

What is called IC50 is the concentration that gives 50% inhibition. High values mean weaker potency, low ones greater potency. Take `COc1ccc2c(c1)OC(C)(C)C(c1ccccc1)C2c1ccc(OCCN2CCCC2)cc1` (stereo not shown) [Ormeloxifene, reference compound]: inhibition was half-maximal at 17.5 µM (IC50).
